This experiment deals with T1, SMARCA2 (Homo sapiens, UniProt P51531).
T1 construct: endogenous in cells; host or cells: HT1080 (CRISPR HiBiT knock-in clone, generated in house)
In words: SMARCA2 HiBiT degradation assay (cellular). Particulars: table head names A549; for DC50: 6 h incubation, HiBiT-tagged SMARCA2, luminescence read-out, read-out: HiBit A549 SMARCA2 IP (nM) 6 h; for Emax: A549, 6 h incubation, Emax = amount of residual protein remaining in the cell following compound treatment. In kind it is cell-based.

T1 sequence (P51531 whole entry): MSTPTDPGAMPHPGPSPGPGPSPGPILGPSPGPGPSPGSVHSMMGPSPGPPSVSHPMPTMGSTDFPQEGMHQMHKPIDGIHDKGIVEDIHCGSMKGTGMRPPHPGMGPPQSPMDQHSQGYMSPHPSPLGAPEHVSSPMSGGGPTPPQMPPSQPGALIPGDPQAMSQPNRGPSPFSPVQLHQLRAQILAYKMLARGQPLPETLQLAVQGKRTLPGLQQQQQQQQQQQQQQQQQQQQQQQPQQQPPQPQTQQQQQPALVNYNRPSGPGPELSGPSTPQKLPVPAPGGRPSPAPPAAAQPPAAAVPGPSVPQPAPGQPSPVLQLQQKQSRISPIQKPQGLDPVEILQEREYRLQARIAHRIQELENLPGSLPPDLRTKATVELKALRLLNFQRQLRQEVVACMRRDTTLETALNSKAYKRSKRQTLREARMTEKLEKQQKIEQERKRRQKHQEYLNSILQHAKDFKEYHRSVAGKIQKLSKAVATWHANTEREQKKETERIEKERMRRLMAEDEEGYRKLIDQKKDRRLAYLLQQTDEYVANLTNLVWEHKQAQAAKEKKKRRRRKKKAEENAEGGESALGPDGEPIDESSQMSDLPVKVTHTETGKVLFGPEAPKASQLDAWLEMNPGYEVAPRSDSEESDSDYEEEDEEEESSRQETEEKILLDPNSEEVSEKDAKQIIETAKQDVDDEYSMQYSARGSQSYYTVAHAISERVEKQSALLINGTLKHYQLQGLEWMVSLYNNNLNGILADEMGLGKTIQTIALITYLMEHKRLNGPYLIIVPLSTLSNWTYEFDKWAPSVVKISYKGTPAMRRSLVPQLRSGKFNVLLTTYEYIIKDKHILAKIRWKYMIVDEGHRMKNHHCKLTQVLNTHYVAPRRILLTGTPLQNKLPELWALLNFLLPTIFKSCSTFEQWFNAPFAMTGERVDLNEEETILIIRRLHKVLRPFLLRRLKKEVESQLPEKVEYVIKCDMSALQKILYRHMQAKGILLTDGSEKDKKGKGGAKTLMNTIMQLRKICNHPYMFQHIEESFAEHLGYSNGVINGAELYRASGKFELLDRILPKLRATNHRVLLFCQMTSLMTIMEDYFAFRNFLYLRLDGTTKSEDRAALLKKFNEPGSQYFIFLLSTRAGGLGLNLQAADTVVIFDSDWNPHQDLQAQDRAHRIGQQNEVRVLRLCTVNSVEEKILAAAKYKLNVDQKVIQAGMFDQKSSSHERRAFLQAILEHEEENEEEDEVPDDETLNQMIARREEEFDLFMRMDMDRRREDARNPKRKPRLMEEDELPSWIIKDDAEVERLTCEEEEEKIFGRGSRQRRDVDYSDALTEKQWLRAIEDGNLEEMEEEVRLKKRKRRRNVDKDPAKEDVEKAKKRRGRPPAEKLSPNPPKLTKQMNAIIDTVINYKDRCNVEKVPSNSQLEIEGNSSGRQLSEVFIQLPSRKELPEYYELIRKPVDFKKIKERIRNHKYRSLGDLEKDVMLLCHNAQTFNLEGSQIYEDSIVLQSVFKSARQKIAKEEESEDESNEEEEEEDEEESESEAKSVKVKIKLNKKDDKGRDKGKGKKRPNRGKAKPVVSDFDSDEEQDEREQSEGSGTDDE

Turning to `Nc1nnc(-c2ccccc2O)cc1N1CC2CCC(C1)N2c1cccc(CN2CCC(C(=O)N3CCN(c4ccc5c(c4)C(=O)N(C4CCC(=O)NC4=O)C5=O)CC3)CC2)c1` (racemic) [Example 95, rac-5-[4-[1-[[3-[3-[3-amino-6-(2-hydroxyphenyl)pyridazin-4-yl]-3,8-diazabicyclo[3.2.1]octan-8-yl]phenyl]methyl]piperidine-4-carbonyl]piperazin-1-yl]-2-(2,6-dioxo-3-piperidyl)isoindoline-1,3-dione], the DC50 amounted to 13 nM and the Emax was found to be 25%.

For `Nc1nnc(-c2ccccc2O)cc1N1CC2CCC(C1)N2c1cccc(CN2CCC(C(=O)NC3CN(c4ccc5c(c4)C(=O)N(C4CCC(=O)NC4=O)C5=O)C3)CC2)c1` (racemic) [Example 134, rac-1-[[3-[3-[3-amino-6-(2-hydroxyphenyl)pyridazin-4-yl]-3,8-diazabicyclo[3.2.1]octan-8-yl]phenyl]methyl]-N-[1-[2-(2,6-dioxo-3-piperidyl)-1,3-dioxo-isoindolin-5-yl]azetidin-3-yl]piperidine-4-carboxamide], the DC50 was determined as 31 nM and the maximal effect (Emax) was 36%.

For `Nc1nnc(-c2ccccc2O)cc1N1CC2CCC(C1)N2c1cccc(OCCN2CCN(C(=O)N3CCC4(CC3)CCN(c3ccc5c(c3)C(=O)N(C3CCC(=O)NC3=O)C5=O)CC4)CC2)c1` (racemic) [Example 52, rac-5-[3-[4-[2-[3-[3-[3-amino-6-(2-hydroxyphenyl)pyridazin-4-yl]-3,8-diazabicyclo[3.2.1]octan-8-yl]phenoxy]ethyl]piperazine-1-carbonyl]-3,9-diazaspiro[5.5]undecan-9-yl]-2-(2,6-dioxo-3-piperidyl)isoindoline-1,3-dione], the DC50 worked out at 37 nM and the Emax was found to be 52%.

In the case of `Nc1nnc(-c2ccccc2O)cc1N1CCC(C(=O)N2CC3(CCN(CCC4CCN(c5ccc6c(c5)C(=O)N(C5CCC(=O)NC5=O)C6=O)CC4)C3)C2)(c2ccccc2)CC1` (centres unmarked) [Example 191, 5-(4-(2-(2-(1-(3-amino-6-(2-hydroxyphenyl)pyridazin-4-yl)-4-phenylpiperidine-4-carbonyl)-2,6-diazaspiro[3.4]octan-6-yl)ethyl)piperidin-1-yl)-2-(2,6-dioxopiperidin-3-yl)isoindoline-1,3-dione], the DC50 amounted to 30 nM and the Emax is 37%.

As for `Nc1nnc(-c2ccccc2O)cc1N1CCN(c2cccc(OCCN3CCN(C(=O)C4CCN(c5ccc6c(c5)C(=O)N(C5CCC(=O)NC5=O)C6=O)CC4)CC3)c2)C2(CC2)C1` (centres unmarked) [Example 84, 5-(4-(4-(2-(3-(7-(3-amino-6-(2-hydroxyphenyl)pyridazin-4-yl)-4,7-diazaspiro[2.5]octan-4-yl)phenoxy)ethyl)piperazine-1-carbonyl)piperidin-1-yl)-2-(2,6-dioxopiperidin-3-yl)isoindoline-1,3-dione], the DC50 came to 17 nM and the Emax was 26%.

Regarding `Nc1nnc(-c2ccccc2O)cc1N1CC(Oc2cccc(CN3CCN(C(=O)C4CCN(c5ccc6c(c5)C(=O)N(C5CCC(=O)NC5=O)C6=O)CC4)CC3)c2)C1` (racemic) [Example 155, rac-5-[4-[4-[[3-[1-[3-amino-6-(2-hydroxyphenyl)pyridazin-4-yl]azetidin-3-yl]oxyphenyl]methyl]piperazine-1-carbonyl]-1-piperidyl]-2-(2,6-dioxo-3-piperidyl)isoindoline-1,3-dione], the DC50 was determined as 5 nM and the maximum response (Emax) was determined as 26%.

Regarding `Nc1nnc(-c2ccccc2O)cc1OC1CCCN(c2ccc(N3CCN(CCCCCCCCCn4cc(CCCNc5cccc6c5C(=O)N(C5CCC(=O)NC5=O)C6=O)nn4)CC3)cc2)C1` (centres unmarked) [Example 109, 4-[3-[1-[9-[4-[4-[3-[3-amino-6-(2-hydroxyphenyl)pyridazin-4-yl]oxy-1-piperidyl]phenyl]piperazin-1-yl]nonyl]triazol-4-yl]propylamino]-2-(2,6-dioxo-3-piperidyl)isoindoline-1,3-dione], the DC50 worked out at 103 nM and the Emax was determined as 29%.

Values taken from patent US20230024096A1, “BIFUNCTIONAL COMPOUNDS FOR THE TREATMENT OF CANCER” (Hoffmann-La Roche Inc., priority 2019, published 2023).
